In patent publication US20080044493A1, “Agent For Ameliorating The Maximum Passage Time Through Digestive Tract, Agent For Ameliorating Passage Time Through Digestive Tract And Preventive For Colon Cancer” (priority 2004, published 2008):

Legend:
[1] = test system: healthy subject (1 person) not suffering from constipation; assay: Test Example 1: transit time through the digestive tract by radio-opaque markers, with fecal weight and defecation frequency; format: in vivo, human; conditions: for Maximum Transit Time through Digestive Tract (average) / Transit Time through Digestive Tract (average): Standard Deviation in parentheses
Excerpt: The method proposed by Hinton et al. was invented to measure the time required from food ingestion to defecation, namely, transit time through the digestive tract. More specifically, a plurality of radio-opaque markers were taken with a meal, and the time required from food ingestion to defecation (ti) and the number of markers contained in the evacuated feces (xi) were inspected based on x-ray images of the collected feces, followed by calculation of transit time through the digestive tract using the following formula. Transit time through the digestive tract indicates an average time required for a plurality of radio-opaque markers taken simultaneously to be evacuated. [formula]
A test sample in a dose shown in Table 1, together with 15 markers, were administered per day with meals to a healthy subject (1 person) not suffering from constipation, and the markers in the feces of the subject were identified thereafter. Test samples were administered for 3 days, and during which the transit times through the digestive tract of 5 or 6 meals were measured. Transit time through the digestive tract calculated by the above formula after each meal and the time required for the last marker to be evacuated (maximum transit time through the digestive tract) were recorded. […] Statistical treatment was performed using t-tests. In addition to the marker identification, the fecal weight and defecation frequency were recorded, and daily average fecal weight and defecation frequency were calculated, and shown in Table 1.

[2] = test system: feces; conditions: 3 g a day; statistically significant; cited from earlier work
[3] = test system: 5 subjects; conditions: liquid preparation 2.4 g per 100 ml, 70 ml (974 mg in terms of magnesium) a day; cited from earlier work

## OC[C@H]1O[C@@H](O[C@H]2[C@H](O)[C@@H](O)[C@@H](O[C@]3(CO)O[C@H](CO)[C@@H](O)[C@@H]3O)O[C@@H]2CO)[C@H](O)[C@@H](O)[C@H]1O [Lactosucrose]
[1]; Dose/Day 1.5 g
  Average Defecation Frequency: 2.0 times/day
  Average Fecal Weight: 267 g/day
  Maximum Transit Time through Digestive Tract (average): 31.3 (8.6) hour
  Transit Time through Digestive Tract (average): 19.7 (3.5) hour

## [O]=[Mg] [Magnesium Oxide]
[1]; 0.17 to 1.5 g a day, in comparison with no administration (control)
  Transit time and maximum transit time through the digestive tract (in words): shortened transit time and maximum transit time through the digestive tract were observed
[1]; 1.0 to 1.5 g intake a day
  Average fecal weight (in words): more than doubled
  Loose stools: caused loose stools having high a moisture content
[1]; Dose/Day 0.17 g
  Average Defecation Frequency: 2.3 times/day
  Average Fecal Weight: 274 g/day
  Maximum Transit Time through Digestive Tract (average): 38.1 (10.1) hour
  Transit Time through Digestive Tract (average): 20.6 (4.1) hour
[1]; Dose/Day 0.35 g
  Average Defecation Frequency: 2.0 times/day
  Average Fecal Weight: 204 g/day
  Maximum Transit Time through Digestive Tract (average): 32.4 (7.6) hour
  Transit Time through Digestive Tract (average): 17.5 (3.1) hour
[1]; Dose/Day 0.50 g
  Average Defecation Frequency: 2.3 times/day
  Average Fecal Weight: 313 g/day
  Maximum Transit Time through Digestive Tract (average): 35.6 (6.9) hour
  Transit Time through Digestive Tract (average): 21.6 (6.8) hour
[1]; Dose/Day 0.75 g
  Average Defecation Frequency: 2.3 times/day
  Average Fecal Weight: 235 g/day
  Maximum Transit Time through Digestive Tract (average): 34.9 (7.2) hour
  Transit Time through Digestive Tract (average): 21.0 (4.3) hour
[1]; Dose/Day 1.0 g
  Average Defecation Frequency: 2.0 times/day
  Average Fecal Weight: 414 g/day
  Maximum Transit Time through Digestive Tract (average): 37.1 (8.2) hour
  Transit Time through Digestive Tract (average): 22.9 (2.8) hour
[1]; Dose/Day 1.5 g
  Average Defecation Frequency: 2.3 times/day
  Average Fecal Weight: 426 g/day
  Maximum Transit Time through Digestive Tract (average): 35.6 (6.4) hour
  Transit Time through Digestive Tract (average): 19.5 (1.9) hour
[1]; up to 0.75 g intake a day
  Loose stools: loose stools were not caused

## O=S(=O)([O-])[O-].[Mg+2] [Magnesium Sulfate]
[1]; Dose/Day 4.5 g
  Average Defecation Frequency: 2.3 times/day
  Average Fecal Weight: 389 g/day
  Maximum Transit Time through Digestive Tract (average): 35.8 (10.1) hour
  Transit Time through Digestive Tract (average): 20.2 (2.4) hour
[1]; compared with magnesium oxide
  Cathartic effects: stronger cathartic effects than magnesium oxide

## OC[C@H]1O[C@@H](O[C@@H]2[C@@H](CO)OC(O)(CO)[C@H]2O)[C@H](O)[C@@H](O)[C@H]1O (mixture of isomers) [Lactulose]
[1]; Dose/Day 1 g
  Average Defecation Frequency: 1.8 times/day
  Average Fecal Weight: 315 g/day
  Maximum Transit Time through Digestive Tract (average): 34.4 (9.4) hour
  Transit Time through Digestive Tract (average): 21.8 (3.1) hour
[2]
  Azoreductase activity in feces: lowered azoreductase activity
  Nitroreductase activity in feces: lowered nitroreductase activity
  Number of the Bifidobacterium in feces: increased number of the Bifidobacterium
  Putrefactive metabolites in feces: reduced putrefactive metabolites
  β-glucuronidase activity in feces: lowered β-glucuronidase activity

## [O]=[Mg] [activated magnesium oxide]
[3]
  Cathartic drug effect: its cathartic drug effect was shown

## OC[C@H]1O[C@H](OC[C@H]2O[C@H](O[C@]3(CO)O[C@H](CO)[C@@H](O)[C@@H]3O)[C@H](O)[C@@H](O)[C@@H]2O)[C@H](O)[C@@H](O)[C@H]1O [Raffinose]
[1]; Dose/Day 2 g
  Average Defecation Frequency: 2.3 times/day
  Average Fecal Weight: 243 g/day
  Maximum Transit Time through Digestive Tract (average): 31.0 (11.5) hour
  Transit Time through Digestive Tract (average): 22.2 (2.5) hour
